# Values of other authors as cited in patent US20250325549A1, “ORAL TABLET COMPOSITION OF RUXOLITINIB AND METHOD FOR PREPARING SAME” (SAMYANG HOLDINGS CORPORATION, priority 2021, published 2025).
# Conditions: Shi et al., J. Clin. Pharmacol. 2012
structure (smiles),measurement,value
"N#CC[C@H](C1CCCC1)n1cc(-c2ncnc3[nH]ccc23)cn1 [Ruxolitinib, (3R)-3-cyclopentyl-3-[4-(7H-pyrrolo[2,3-d]pyrimidin-4-yl)pyrazol-1-yl]propanenitrile]",half-life,approximately 3 hours
